Measurements as given in US5523320A, “N-methyldeacetylcolchiceinamide derivatives” (Ohgen Research Laboratories, Ltd., priority 1993, dated 1996).
≈ marks a conversion by molar mass, not a printed value. Where “and” joins values, the source holds several entries; their conditions need not be identical. Equal values may be shown once.

Key:
[1] = test system: mouse leukemic cells P388/S; assay: In vitro cancer cell proliferation inhibition (Trypan Blue living cell count, 2 days culture); format: cell-based; details: three separate experiments
Experimental: (§1) Test example 1: In vitro cancer cell proliferation inhibiting text
(§2) Mouse leukemic cells p388/S and adriamycin-resistant mouse leukemic cells P388/ADR subculturally transplanted in the abdominal cavity of mice were taken out together with the asites therefrom, respectively, and after washing, suspended in RPMI 1640 media (each containing 10% fetal bovine serum and 10 μM 2-mercaptoethanol) to 2×10^5 cells/ml, respectively. 0.5 vol. % each of test solutions (solutions of the compound of the later-described in Example 1 in dimethylsulfoxide) were added to portions of each of these cell suspensions, respectively; and the mixtures were separately put into a 24-well culture plate and subjected to culture for 2 days in a 5% carbon dioxide culturing vessel. A 0.5% Trypan Blue solution was added to each of the cell culture broths in the same amount, and the 50% proliferation inhibitory concentration (IC50) of the compound of Example 1 was determined by counting the number of the cells not stained as living cells under a microscope.

[2] = test system: adriamycin-resistant mouse leukemic cells P388/ADR; assay: as above; format: cell-based; details: three separate experiments
Experimental: as §1, §2

[3] = test system: CDF male mice; assay: Acute toxicity test (intraperitoneal, 10 days observation); format: in vivo, mouse; details: i.p.
Excerpt: Test example 2: Acute toxicity test

[4] = test system: cancer cells; details: literature; cited from earlier work
[5] = literature / background; cited from earlier work

SMILES | IC50 ([1]; Mus musculus, 48 h, read-out: Cytotoxicity IC50 (50% proliferation inhibitory concentration)) | Cytotoxicity IC50 (50% proliferation inhibitory concentration) ([1]; 2880 min) | IC50 ([2]; Mus musculus, P388/ADR, 48 h, read-out: Cytotoxicity IC50 (50% proliferation inhibitory concentration)) | Cytotoxicity IC50 (50% proliferation inhibitory concentration) ([2]; 2880 min) | acute toxicity symptoms: diarrhea or constipation ([3]; groups of high dose) | acute toxicity symptoms: lie of hair ([3]; on and after one day after administration) | acute toxicity symptoms: walking problems and paralysis ([3]; survival cases in the 47 mg/kg administration group) | body weight change ([3]; up to 2 to 4 days after administration and thereafter) | pharmacological actions on cancer cells [4] | toxicity [5]
CNc1ccc2c(cc1=O)C(NC(=O)C1COC(C)(C)O1)CCc1cc(OC)c(OC)c(OC)c1-2 (stereo not shown) [Example 1, N-(O,O-isopropylideneglyceroyl)-N-methyldeacetylcolchiceinamide] | 3.2 ng/mL (≈ 0.0066 µM) | 4.2 ng/mL and 4.6 ng/mL | 9.2 ng/mL (≈ 0.019 µM) | 11.0 ng/mL and 11.1 ng/mL | cases where diarrhea or constipation arose were observed | the lie of hair got worse | walking problems as in the right leg and paralysis of one side of the body | tended to decrease up to 2 to 4 days after administration, but thereafter increased gradually | – | –
COc1cc2c(c(OC)c1OC)-c1ccc(OC)c(=O)cc1C(NC(C)=O)CC2 (stereo not shown) [colchicine] | – | – | – | – | – | – | – | – | has pharmacological actions on cancer cells, gout, etc. | strong toxicity
